Reference: patent EP4818317A1, “POLYPEPTIDE FOR BIOSYNTHESIS OF 1,2-PROPANEDIOL AND USE THEREOF” (Tianjin University, priority 2023, dated 2025)

Assays:
[1] = target: T1, Escherichia coli strain K12 1,5-anhydromannitol-6-phosphate isomerase EcPflD (Uniprot P32674), SEQ ID NO: 98 (Escherichia coli, UniProt P32674); assay: Michaelis-Menten kinetics of EcPflD, coupled with EcFsaB and EcGldA, decrease in A340nm; type: biochemical; settings: 40 nM activated EcPflD, 20 mM Tris/HCl pH 7.5, 100 mM KCl, 2 µM EcFsaB, 2 µM EcGldA, 0.4 mM NADH, anaerobic glove box; substrate 1,5-AM-6P at various concentrations
T1 sequence (P32674 1-765): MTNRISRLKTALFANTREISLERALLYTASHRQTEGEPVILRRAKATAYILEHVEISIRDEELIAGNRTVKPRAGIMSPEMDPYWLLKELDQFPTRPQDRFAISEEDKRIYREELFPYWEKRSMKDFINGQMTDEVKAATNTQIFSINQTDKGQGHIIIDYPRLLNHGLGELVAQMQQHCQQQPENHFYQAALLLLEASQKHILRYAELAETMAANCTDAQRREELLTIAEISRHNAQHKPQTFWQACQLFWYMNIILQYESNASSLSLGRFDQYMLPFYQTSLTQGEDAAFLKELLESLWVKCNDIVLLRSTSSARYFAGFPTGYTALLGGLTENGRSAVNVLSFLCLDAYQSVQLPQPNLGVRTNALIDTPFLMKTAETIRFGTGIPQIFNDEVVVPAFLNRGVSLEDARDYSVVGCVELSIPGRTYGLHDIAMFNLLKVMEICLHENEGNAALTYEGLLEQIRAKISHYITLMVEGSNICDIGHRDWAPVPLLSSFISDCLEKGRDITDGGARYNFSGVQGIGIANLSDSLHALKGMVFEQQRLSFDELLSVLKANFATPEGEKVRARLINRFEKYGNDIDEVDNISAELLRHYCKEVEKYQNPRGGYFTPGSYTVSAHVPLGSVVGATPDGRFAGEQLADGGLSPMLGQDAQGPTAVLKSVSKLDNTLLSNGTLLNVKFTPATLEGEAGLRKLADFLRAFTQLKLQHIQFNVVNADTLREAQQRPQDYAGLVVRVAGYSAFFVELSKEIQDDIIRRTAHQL
Protocol: (§1) The EcPflD glycine radical was characterized using continuous-wave X-band electron paramagnetic resonance (EPR) spectroscopy. A reaction system (200 µL) containing 20 mM Tris/HCl, (pH 7.5), 100 mM KCl, 100 µM titanium(III) citrate, 1 mM SAM, 80 µM reconstituted EcPflC, and 40 µM EcPflD was incubated for 15 minutes at room temperature in a glove box. Glycerol (10%) was added, and a resulting mixture was transferred to an EPR tube with an outer diameter of 4 mm and a length of 8 inches (Wilmad Lab Glass, 734-LPV-7). The tube was sealed with a rubber stopper, removed from the glove box, and frozen in liquid nitrogen prior to EPR analysis. […]
(§2) A reaction mixture containing 20 mM Tris/HCl, (pH 7.5), 100 mM KCl, 10 mM 1,5-AM-6P, 40 nM activated EcPflD, 5 µM EcFsaB, 5 µM EcGldA, and 0.4 mM NADH was incubated in a 1 cm Eppendorf cuvette in a glove box at room temperature. Absorbance at 340 nm was monitored every 5 seconds using a cuvette mode of an ultra-micro UV-Vis spectrophotometer (Hangzhou Miu Instruments Co., Ltd.) inside the glove box. […]
(§3) The reaction system containing 20 mM Tris/HCl, (pH 7.5), 100 mM KCl, 40 nM activated EcPflD and 1,5-AM-6P with various substrate concentrations, 2 µM EcFsaB, 2 µM EcGldA, and 0.4 mM NADH was measured using a cuvette mode of an ultra-micro UV-Vis spectrophotometer (Hangzhou Miu Instruments Co., Ltd.) in a 1 cm Eppendorf cuvette inside a glove box. […]

[2] = tested on: Lactiplantibacillus plantarum 1,5-anhydroglucitol-6-phosphate isomerase LpYbiW (Uniprot A0A807DR53), SEQ ID NO: 2; assay: Michaelis-Menten kinetics of LpYbiW, coupled with LpFsaA and EcGldA, NADH consumption at A340nm; type: biochemical; settings: 100 nM activated LpYbiW, 20 mM Tris/HCl pH 7.5, 100 mM KCl, 5 µM LpFsaA, 5 µM EcGldA, 0.4 mM NADH, anaerobic glove box; substrate 1,5-anhydroglucitol-6-phosphate at varying concentrations
Protocol: Continuous-wave X-band EPR spectroscopy was used to characterize the LpYbiW glycyl radical. A reaction system (200 µL) containing 20 mM Tris/HCl, (pH 7.5), 100 mM KCl, 100 µM titanium(III) citrate, 1 mM SAM, 80 µM reconstituted LpYbiY, and 40 µM LpYbiW was incubated for 15 minutes at room temperature in a glove box. 10% glycerol was added, and a resulting mixture was loaded into an EPR tube (Wilmad Lab Glass, 734-LPV-7) with an outer diameter of 4 mm and a length of 8 inches. The tube was sealed with a rubber stopper, removed from the glove box, and frozen using liquid nitrogen before EPR analysis. The experimental spectrum of the glycyl radical was modeled using Bruker Xepr spin fitting to obtain g-values, hyperfine coupling constants, and line widths. Double integration of the simulated spectrum was used to measure the spin concentration. […]
The Michaelis-Menten kinetic parameters of LpYbiW were determined by coupling with LpFsaA and EcGldA. The reaction rate of LpYbiW was monitored by measuring NADH consumption at A340nm. The absorbance change of the reaction system at 340 nm was measured every 5 seconds using the cuvette mode of an ultra-micro UV-visible spectrophotometer (Nanophotometer) in a glove box (1 cm light path). […]

[3] = substrate: O=P(O)(O)OC[C@H]1OC[C@@H](O)[C@@H](O)[C@@H]1O; assay: Michaelis-Menten kinetics of EcPflD, coupled with EcFsaB and EcGldA, decrease in A340nm; type: biochemical, Escherichia coli strain K12; settings: other: 40 nM activated EcPflD, 20 mM Tris/HCl pH 7.5, 100 mM KCl, 2 µM EcFsaB, 2 µM EcGldA, 0.4 mM NADH, anaerobic glove box, substrate 1,5-AM-6P at various concentrations
Protocol: as §1, §2, §3

In the case of `O=P(O)(O)OC[C@H]1OC[C@@H](O)[C@@H](O)[C@@H]1O` [1,5-AM-6P, 1,5-anhydromannitol-6-phosphate], the kcat [1] is reported as 33.47 ± 0.79 s^-1/EcPflD.

With `O=P(O)(O)OC[C@H]1OC[C@H](O)[C@@H](O)[C@@H]1O` [1,5-AG-6P, 1,5-anhydroglucitol-6-phosphate] the Km [2] was 36.5 ± 6.66 mM and the kcat [2] was 43.38 ± 2.96 s^-1/LpYbiW.

B1: Escherichia coli strain K12 1,5-anhydromannitol-6-phosphate isomerase EcPflD (Uniprot P32674), SEQ ID NO: 98 (Escherichia coli K-12) (protein)
chain: MTNRISRLKTALFANTREISLERALLYTASHRQTEGEPVILRRAKATAYILEHVEISIRDEELIAGNRTVKPRAGIMSPEMDPYWLLKELDQFPTRPQDRFAISEEDKRIYREELFPYWEKRSMKDFINGQMTDEVKAATNTQIFSINQTDKGQGHIIIDYPRLLNHGLGELVAQMQQHCQQQPENHFYQAALLLLEASQKHILRYAELAETMAANCTDAQRREELLTIAEISRHNAQHKPQTFWQACQLFWYMNIILQYESNASSLSLGRFDQYMLPFYQTSLTQGEDAAFLKELLESLWVKCNDIVLLRSTSSARYFAGFPTGYTALLGGLTENGRSAVNVLSFLCLDAYQSVQLPQPNLGVRTNALIDTPFLMKTAETIRFGTGIPQIFNDEVVVPAFLNRGVSLEDARDYSVVGCVELSIPGRTYGLHDIAMFNLLKVMEICLHENEGNAALTYEGLLEQIRAKISHYITLMVEGSNICDIGHRDWAPVPLLSSFISDCLEKGRDITDGGARYNFSGVQGIGIANLSDSLHALKGMVFEQQRLSFDELLSVLKANFATPEGEKVRARLINRFEKYGNDIDEVDNISAELLRHYCKEVEKYQNPRGGYFTPGSYTVSAHVPLGSVVGATPDGRFAGEQLADGGLSPMLGQDAQGPTAVLKSVSKLDNTLLSNGTLLNVKFTPATLEGEAGLRKLADFLRAFTQLKLQHIQFNVVNADTLREAQQRPQDYAGLVVRVAGYSAFFVELSKEIQDDIIRRTAHQL
Molecule B1 has a Km [3] of 1.33 ± 0.12 mM.
